Measurements taken from patent publication US8524755B2 (priority 2009, dated 2013).

Legend:
KATP channel = experiment: Binding KATP channel (aa); design: species or system rat
Method: (§1) Radioligand binding assay methods utilized to measure the activity of compounds of the invention will be familiar to those skilled in the art. In each assay case, the assay components such as, for example, the cell-type, ligand, reference compound and the like, will be familiar to practitioners of such an assay.
(§2) Analysis and Expression of Results: Compounds of the invention were tested in the biochemical assays and percent inhibition of specific binding was determined. The specific ligand binding to the receptors is defined as the difference between the total binding and the nonspecific binding determined in the presence of an excess of unlabelled ligand. The results are expressed as a percent inhibition of control specific binding (100−((measured specific binding/control specific binding)×100)) obtained in the presence of test compounds.

Histamine H3 (h) = biological target: T1, Histamine H3 (h) (Homo sapiens, UniProt Q9Y5N1); experiment: Binding H3 (h) (ag); settings: read-out: % Inhibition of Control Specific Binding @ 10 μM
T1 construct: expressed in transfected cells; host or cells: CHO cells
T1 sequence (Q9Y5N1 whole entry): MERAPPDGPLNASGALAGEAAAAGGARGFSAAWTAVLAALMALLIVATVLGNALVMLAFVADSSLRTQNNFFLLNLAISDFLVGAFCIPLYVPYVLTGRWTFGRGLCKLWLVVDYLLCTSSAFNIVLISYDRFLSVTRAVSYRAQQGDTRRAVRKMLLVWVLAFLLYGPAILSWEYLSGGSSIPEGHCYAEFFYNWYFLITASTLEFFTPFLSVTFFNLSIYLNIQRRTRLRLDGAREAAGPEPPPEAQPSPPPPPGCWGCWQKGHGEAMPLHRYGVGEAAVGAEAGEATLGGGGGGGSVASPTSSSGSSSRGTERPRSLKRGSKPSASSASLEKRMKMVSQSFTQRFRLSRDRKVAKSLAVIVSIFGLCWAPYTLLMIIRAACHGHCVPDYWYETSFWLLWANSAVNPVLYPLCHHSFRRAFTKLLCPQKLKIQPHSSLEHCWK
Method: as §1, §2

PDE4D (h) = biological target: T2, PDE4D (h) (Homo sapiens, UniProt Q08499); experiment: Enzyme assay PDE4D (h); assay type: biochemical; settings: read-out: % Inhibition of Control Values @ 10 μM
T2 construct: host or cells: Sf9 cells
T2 sequence (Q08499 whole entry): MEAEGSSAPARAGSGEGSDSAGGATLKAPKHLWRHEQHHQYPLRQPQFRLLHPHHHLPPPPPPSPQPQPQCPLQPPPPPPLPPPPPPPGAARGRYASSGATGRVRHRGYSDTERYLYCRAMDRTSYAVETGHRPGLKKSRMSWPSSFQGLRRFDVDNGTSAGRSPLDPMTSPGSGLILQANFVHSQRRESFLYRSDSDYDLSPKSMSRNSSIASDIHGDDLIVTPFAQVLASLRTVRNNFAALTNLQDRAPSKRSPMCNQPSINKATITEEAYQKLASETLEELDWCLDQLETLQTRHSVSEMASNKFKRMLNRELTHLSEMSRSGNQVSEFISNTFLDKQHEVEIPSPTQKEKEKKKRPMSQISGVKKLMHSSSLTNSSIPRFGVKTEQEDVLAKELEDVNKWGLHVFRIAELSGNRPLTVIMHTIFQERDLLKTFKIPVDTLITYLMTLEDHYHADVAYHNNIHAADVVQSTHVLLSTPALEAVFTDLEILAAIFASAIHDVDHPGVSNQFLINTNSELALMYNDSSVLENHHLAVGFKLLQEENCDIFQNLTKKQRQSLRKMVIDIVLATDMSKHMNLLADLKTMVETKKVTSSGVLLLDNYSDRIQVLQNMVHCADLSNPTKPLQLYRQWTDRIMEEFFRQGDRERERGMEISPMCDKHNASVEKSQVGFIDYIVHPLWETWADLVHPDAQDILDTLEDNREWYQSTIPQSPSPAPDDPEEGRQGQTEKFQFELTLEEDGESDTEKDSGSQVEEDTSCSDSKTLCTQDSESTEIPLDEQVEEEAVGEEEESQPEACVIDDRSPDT
Excerpt: (§3) The enzyme assays provided below will be familiar to those skilled in the art.
(§4) Analysis and Expression of Results: The results are expressed as a percent of control specific activity ((measured specific activity/control specific activity)×100) obtained in the presence of the test compounds.

NMDA = experiment: Binding NMDA (aa); design: species or system rat
Method: as §1, §2

Bradykinin B1 (h) = biological target: T3, Bradykinin B1 (h) (Homo sapiens, UniProt P46663); experiment: Binding B1 (h) (ag); settings: read-out: % Inhibition of Control Specific Binding @ 10 μM
T3 construct: expressed in transfected cells; host or cells: CHO cells
T3 sequence (P46663 1-353): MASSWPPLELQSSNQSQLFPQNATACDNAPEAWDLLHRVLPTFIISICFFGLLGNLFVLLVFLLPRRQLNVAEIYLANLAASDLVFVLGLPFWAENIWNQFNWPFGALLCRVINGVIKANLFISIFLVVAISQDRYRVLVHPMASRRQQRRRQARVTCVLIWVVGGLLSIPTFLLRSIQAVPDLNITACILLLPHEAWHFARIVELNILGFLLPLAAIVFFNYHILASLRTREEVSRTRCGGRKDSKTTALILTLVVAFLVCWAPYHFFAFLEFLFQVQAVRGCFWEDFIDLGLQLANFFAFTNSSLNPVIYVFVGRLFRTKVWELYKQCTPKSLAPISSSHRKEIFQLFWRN
Method: as §1, §2

adenylyl cyclase (basal) = experiment: Enzyme assay adenylyl cyclase (basal); assay type: biochemical, rat
Excerpt: as §3, §4

PKCα (h) = biological target: T4, PKCα (h) (Homo sapiens, UniProt P17252); experiment: Enzyme assay PKCα (h); assay type: biochemical; settings: read-out: % Inhibition of Control Values @ 10 μM
T4 construct: host or cells: insect cells
Excerpt: as §3, §4

Neurokinin NK2 (h) = biological target: T5, Neurokinin NK2 (h) (Homo sapiens, UniProt P21452); experiment: Binding NK2 (h) (ag); settings: read-out: % Inhibition of Control Specific Binding @ 10 μM
T5 construct: expressed in transfected cells; host or cells: CHO cells
T5 sequence (P21452 1-398): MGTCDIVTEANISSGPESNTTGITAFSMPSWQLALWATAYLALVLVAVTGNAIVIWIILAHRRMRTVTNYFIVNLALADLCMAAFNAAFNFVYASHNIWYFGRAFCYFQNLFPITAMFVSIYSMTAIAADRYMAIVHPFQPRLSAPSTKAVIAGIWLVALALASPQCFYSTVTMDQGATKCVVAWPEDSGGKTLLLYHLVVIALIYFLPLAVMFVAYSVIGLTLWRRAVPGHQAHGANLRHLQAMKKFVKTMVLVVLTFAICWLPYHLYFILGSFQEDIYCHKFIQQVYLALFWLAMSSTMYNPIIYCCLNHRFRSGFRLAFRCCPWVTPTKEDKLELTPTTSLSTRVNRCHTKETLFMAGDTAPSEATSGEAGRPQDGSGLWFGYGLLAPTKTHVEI
Method: as §1, §2

Cannabinoid CB2 (h) = biological target: T6, Cannabinoid CB2 (h) (Homo sapiens, UniProt P34972); experiment: Binding CB2 (h) (ag); settings: read-out: % Inhibition of Control Specific Binding @ 10 μM
T6 construct: expressed in transfected cells; host or cells: CHO cells
T6 sequence (P34972 whole entry): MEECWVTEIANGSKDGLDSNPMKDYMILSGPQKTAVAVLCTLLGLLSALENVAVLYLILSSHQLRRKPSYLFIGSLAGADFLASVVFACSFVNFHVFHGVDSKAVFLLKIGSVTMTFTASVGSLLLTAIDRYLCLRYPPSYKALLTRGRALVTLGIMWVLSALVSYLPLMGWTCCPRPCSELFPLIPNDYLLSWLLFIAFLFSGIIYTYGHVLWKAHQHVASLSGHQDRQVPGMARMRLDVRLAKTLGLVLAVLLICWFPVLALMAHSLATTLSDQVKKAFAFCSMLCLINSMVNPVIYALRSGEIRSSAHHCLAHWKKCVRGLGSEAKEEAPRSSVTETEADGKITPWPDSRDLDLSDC
Method: as §1, §2

Dopamine D1 (h) = biological target: T7, Dopamine D1 (h) (Homo sapiens, UniProt P21728); experiment: Binding D1 (h) (aa); settings: read-out: % Inhibition of Control Specific Binding @ 10 μM
T7 construct: expressed in transfected cells; host or cells: CHO cells
T7 sequence (P21728 whole entry): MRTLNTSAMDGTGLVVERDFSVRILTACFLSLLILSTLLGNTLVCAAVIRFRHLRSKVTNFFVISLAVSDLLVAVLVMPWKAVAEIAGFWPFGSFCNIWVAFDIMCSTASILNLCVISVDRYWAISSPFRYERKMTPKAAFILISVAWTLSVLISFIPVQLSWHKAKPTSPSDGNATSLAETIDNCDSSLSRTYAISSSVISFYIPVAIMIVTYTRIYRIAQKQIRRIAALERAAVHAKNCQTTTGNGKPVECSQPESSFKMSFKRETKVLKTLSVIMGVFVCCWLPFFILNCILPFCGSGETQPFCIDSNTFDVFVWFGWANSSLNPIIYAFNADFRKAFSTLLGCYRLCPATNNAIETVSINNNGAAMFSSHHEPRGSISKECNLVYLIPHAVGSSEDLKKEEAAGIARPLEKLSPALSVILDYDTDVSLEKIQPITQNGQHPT
Method: as §1, §2

SMILES	% Inhibition of Control Specific Binding @ 10 μM (KATP channel)	inhibition at 10 µM (Histamine H3 (h))	inhibition at 10 µM (PDE4D (h))	% Inhibition of Control Specific Binding @ 10 μM (NMDA)	inhibition at 10 µM (Bradykinin B1 (h))	% Stimulation Relative to Control @ 10 μM (adenylyl cyclase (basal))	inhibition at 10 µM (PKCα (h))	inhibition at 10 µM (Neurokinin NK2 (h))	inhibition at 10 µM (Cannabinoid CB2 (h))	inhibition at 10 µM (Dopamine D1 (h))
CC1(C)C(=O)N(c2ccc(C#N)c(C(F)(F)F)c2)C(=S)N1c1ccc(C(=O)O)c(F)c1 [(MI), 4-(3-(4-cyano-3-(trifluoromethyl)phenyl)-5,5-dimethyl-4-oxo-2-thioxoimidazolidin-1-yl)-2-fluorobenzoic acid]	17%	-3%	1%	2%	0%	0%	4%	-6%	-2%	-18%
CC1(C)C(=O)N(c2ccc(C#N)c(C(F)(F)F)c2)C(=S)N1c1ccc(C(N)=O)c(F)c1 [(MII), 4-(3-(4-Cyano-3-(trifluoromethyl)phenyl)-5,5-dimethyl-4-oxo-2-thioxoimidazolidin-1-yl)-2-fluorobenzamide]	24%	-2%	-9%	5%	6%	3%	6%	-3%	1%	-14%
CC1(C)C(=O)N(c2ccc(C#N)c(C(F)(F)F)c2)C(=O)N1c1ccc(C(N)=O)c(F)c1 [(MIII), 4-(3-(4-cyano-3-(trifluoromethyl)phenyl)-5,5-dimethyl-2,4-dioxoimidazolidin-1-yl)-2-fluorobenzamide]	7%	-13%	-11%	0%	5%	4%	3%	0%	-3%	-17%
CNC(=O)c1ccc(N2C(=O)N(c3ccc(C#N)c(C(F)(F)F)c3)C(=O)C2(C)C)cc1F [(MIV), 4-(3-(4-cyano-3-(trifluoromethyl)phenyl)-5,5-dimethyl-2,4-dioxoimidazolidin-1-yl)-2-fluoro-N-methylbenzamide]	7%	-4%	-41%	−41%	4%	11%	5%	2%	1%	-17%
